Test results as given in patent US20090264415A2 (priority 2004, published 2009).
Read-outs that look alike come from different tables or passages of the source.

Test system: peripheral blood mononuclear cells (PBMC) stimulated with allogeneic PBMC or EBV-transformed human B cells (RPMI1788)
Experiment: Mixed lymphocyte reaction (MLR) assay
Format: cell-based
Description: Pyrido[3,2-d]pyrimidine derivatives were first dissolved (10 mM) in dimethyl-sulfoxide (hereinafter referred as DMSO) and further diluted in culture medium before use for the following in vitro experiments. […] Some pyrido[3,2-d]pyrimidine derivatives described herein were tested in the following mixed lymphocyte reaction (MLR) assay.
Peripheral blood mononuclear cells (hereinafter referred as PBMC) were isolated from heparinized peripheral blood by density gradient centrifugation over Lymphoprep (Nycomed, Maorstua, Norway). Allogeneic PBMC or Eppstein-Barr Virus-transformed human B cells [commercially available under the trade name RPM11788 (ATCC name CCL156)] which strongly express B7-1 and B7-2 antigens were used as stimulator cells after irradiation with 30 Gy. MLR was performed in triplicate wells. After 5 days incubation at 37° C., 1 μCi [^3H]-thymidine was added to each cup. After a further 16 hours incubation, cells were harvested and counted in a β-counter. Inhibition of proliferation by a compound described in some of the present examples was counted while using the formula: [formula] wherein cpm is the thymidine count per minute. The MLR assay is regarded by those skilled in the art as an in vitro analogue of the transplant rejection since it is based on the recognition of allogeneic major histocompatibility antigens on the stimulator leukocytes, by responding lymphocytes.

[1] = Homo sapiens, RPMI-1788, MLR assay of example 319, read-out: MLR IC50
[2] = 50% suppression of the MLR, [3H]-thymidine incorporation, read-out: MLR
[3] = Homo sapiens, RPMI-1788, 50% suppression of the MLR, [3H]-thymidine incorporation, read-out: MLR

Work on `Nc1nc(N2CCN(C(=O)COc3ccc(Cl)cc3Cl)CC2)c2nc(-c3ccc(F)cc3)ccc2n1` [Example 386, 2-amino-4-[4-(2,4-dichlorophenoxyacetyl)piperazin-1-yl]-6-(4-fluorophenyl)-pyrido[3,2-d]pyrimidine] yielded an IC50 [1] of 0.4 µM.
`Nc1nc(N2CCN(C(=O)CO)CC2)c2nc(-c3ccc(F)cc3)ccc2n1` [Example 437, 2-amino-4-[4-(2-hydroxyacetyl)piperazin-1-yl]-6-(4-fluorophenyl)-pyrido[3,2-d]pyrimidine] showed an IC50 [1] of 1.6 µM.
In the case of `Nc1nc(N2CCN(C(=O)COc3ccc(Cl)cc3)CC2)c2nc(-c3ccc4c(c3)CCO4)ccc2n1` [Example 497, 2-amino-4-[N-(4-chlorophenoxyacetyl)-piperazin-1-yl]-6-(2,3-dihydro-1-benzofuran-5-yl)-pyrido(3,2-d)pyrimidine], the IC50 [1] is reported as 0.21 µM.
For `Nc1cccc(-c2ccc3nc(N)nc(N4CCN(C(=O)COc5ccc(Cl)cc5)CC4)c3n2)c1` [Example 419, 2-amino-4-[4-(4-chlorophenoxyacetyl)piperazin-1-yl]-6-(3-aminophenyl)pyrido-[3,2-d]pyrimidine], the IC50 [1] was 0.02 µM.
In the case of `CC(C)(C)OC(=O)N1CCN(c2nc(NC3CCCC3)nc3ccc(-c4ccc(F)cc4)nc23)CC1` [Example 568, 2-cyclopentylamino-6-(4-fluorophenyl)-4-(4-Boc-piperazino)-pyrido[3,2-d]pyrimidine], the IC50 [1] is reported as 6.5 µM.
`Nc1nc(N2CCN(C(=O)COc3ccc(Cl)cc3)CC2)c2nc(-c3ccc(O)cc3)ccc2n1` [Example 415, 2-amino-4-[4-(4-chlorophenoxyacetyl)piperazin-1-yl]-6-(4-hydroxyphenyl)pyrido-[3,2-d]pyrimidine] gave an IC50 [1] of 0.006 µM.
`NCc1ccc(-c2ccc3nc(N)nc(N4CCN(C(=O)COc5ccc(Cl)cc5)CC4)c3n2)cc1` [Example 447, 2-amino-4-[4-(4-chlorophenoxyacetyl)piperazin-1-yl]-6-[4-(aminomethyl)phenyl]pyrido-[3,2-d]pyrimidine] gave an IC50 [1] of 0.4 µM.
`Cc1cccc(NC(=O)N2CCN(c3nc(N)nc4ccc(Cl)nc34)CC2)c1` [Example 541, 2-amino-4-[(3-methylphenylcarbamoyl)-piperazin-1-yl]-6-chloro-pyrido[3,2-d]pyrimidine] was tested, and the IC50 [1] was 0.06 µM.
For `CC(=O)Nc1ccc(-c2ccc3nc(N)nc(N4CCN(C(=O)COc5ccc(Cl)cc5)CC4)c3n2)cc1` [Example 449, 2-amino-4-[4-(4-chlorophenoxyacetyl)piperazin-1-yl]-6-[4-(acetamido)phenyl]-pyrido-[3,2-d]pyrimidine], the IC50 [1] was 0.039 µM.
With `COc1cc(-c2ccc3nc(N)nc(N4CCOCC4)c3n2)ccc1OC1CCCC1` [Example 98, 2-amino-4-(N-morpholino)-6-(4-cyclopentyloxy-3-methoxyphenyl)-pyrido[3,2-d]pyrimidine] the IC50 [2] was 7.6 µM.
For `Cc1cccc(NC(=O)N2CCN(c3nc(N)nc4ccc(-c5ccccc5C#N)nc34)CC2)c1` [Example 546, 2-amino-4-[(3-methylphenylcarbamoyl)-piperazin-1-yl]-6-(2-cyano-phenyl)-pyrido[3,2-d]pyrimidine], the IC50 [1] was 0.004 µM.
With `Nc1nc(N2CCN(C(=O)COc3ccc(Cl)cc3)CC2)c2nc(-c3c(F)cccc3Cl)ccc2n1` [Example 442, 2-amino-4-[4-(4-chlorophenoxyacetyl)piperazin-1-yl]-6-(2-chloro-6-fluorophenyl)-pyrido-[3,2-d]pyrimidine] the IC50 [1] was 0.3 µM.
With `Nc1nc(N2CCN(C(=O)c3ccco3)CC2)c2nc(-c3ccc4c(c3)OCO4)ccc2n1` [Example 192, 2-amino-4-[N-(2-furoyl)-piperazin-1-yl]-6-(3,4-methylenedioxyphenyl)-pyrido[3,2-d]pyrimidine] the IC50 [3] was 8.1 µM.
Work on `CC(=O)Oc1ccc(-c2ccc3nc(N)nc(N4CCN(C(=O)COc5ccc(Cl)cc5)CC4)c3n2)cc1` [Example 504, 2-amino-4-[N-(4-chlorophenoxyacetyl)-piperazin-1-yl]-6-(4-acetoxy-phenyl)-pyrido(3,2-d)pyrimidine] yielded an IC50 [1] of 0.05 µM.
Work on `COc1ccc(-c2ccc3nc(N)nc(N4CCC(O)(c5ccc(Cl)cc5)CC4)c3n2)cc1OC` [Example 269, 2-amino-4-(4-chlorophenyl-4-hydroxypiperidin-1-yl)-6-(3,4-dimethoxyphenyl)-pyrido[3,2-d]pyrimidine] yielded an IC50 [3] of 3.1 µM.
For `CCNC(=O)N1CCN(c2nc(N)nc3ccc(-c4ccc(F)cc4)nc23)CC1` [Example 450, 2-amino-4-[4-(N-ethylcarbamoyl)-piperazin-1-yl]-6-(4-fluorophenyl)-pyrido[3,2-c]pyrimidine], the IC50 [1] was 0.5 µM.
Compound `COCCNCc1nc(N2CCN(C(=O)Nc3cccc(C)c3)CC2)c2nc(-c3ccc(F)cc3)ccc2n1` [Example 538, 2-(N-methoxyethylamino)methyl-4-[N-(3-methylphenylcarbamoyl)piperazin-1-yl]-6-(4-fluorophenyl)-pyrido[3,2-d]pyrimidine] has an IC50 [1] of 0.34 µM.
Compound `Cc1cccc(NC(=O)N2CCN(c3nc(CNC4CC4)nc4ccc(-c5ccc(F)cc5)nc34)CC2)c1` [Example 539, 2-(N-cyclopropylamino)methyl-4-[N-(3-methylphenylcarbamoyl)piperazin-1-yl]-6-(4-fluorophenyl)-pyrido[3,2-d]pyrimidine] has an IC50 [1] of 0.7 µM.
With `CC(C)(C)OC(=O)N1CCN(c2nc(N3CCCC3)nc3ccc(-c4ccc(F)cc4)nc23)CC1` [Example 567, 6-(4-fluorophenyl)-4-(4-Boc-piperazino)-2-pyrrolidino-pyrido[3,2-d]pyrimidine] the IC50 [1] was > 10 µM.
For `Nc1nc(N2CCOCC2)c2nc(-c3ccc(F)c(Cl)c3)ccc2n1` [Example 242, 2-amino-4-morpholino-6-(3-chloro-4-fluorophenyl)-pyrido[3,2-d]pyrimidine], the IC50 [3] was 2.6 µM.
`O=C(Nc1cccc(Cl)c1)N1CCN(c2ncnc3ccc(Cl)nc23)CC1` [Example 70, 4-[(N-3-chlorophenylcarbamoyl)-piperazin-1-yl]-6-chloro-pyrido[3,2-d]pyrimidine] was tested, and the IC50 [2] was 3.4 µM.
Work on `CCCCNC(=O)N1CCN(c2nc(N)nc3ccc(-c4ccc(F)cc4)nc23)CC1` [Example 451, 2-amino-4-[4-(N-butylcarbamoyl)-piperazin-1-yl]-6-(4-fluorophenyl)-pyrido[3,2-d]pyrimidine] yielded an IC50 [1] of 0.2 µM.
`C[C@H]1CN(C(=O)COc2ccc(Cl)cc2)CCN1c1nc(N)nc2ccc(-c3ccc(F)cc3)nc12` [Example 489, (S)-2-amino-4-[4-(4-chlorophenoxyacetyl)-2-methylpiperazin-1-yl]-6-(4-fluorophenyl)-pyrido[3,2-d]pyrimidine] gave an IC50 [1] of 0.005 µM.
With `Cc1cccc(NC(=O)N2CCN(c3nc(N)nc4ccc(-c5ccccc5F)nc34)CC2)c1` [Example 547, 2-amino-4-[(3-methylphenylcarbamoyl)-piperazin-1-yl]-6-(2-fluoro-phenyl)-pyrido[3,2-d]pyrimidine] the IC50 [1] was 0.06 µM.
With `Nc1nc(N2CCN(C(=O)CC(=O)Nc3ccc(Cl)cc3)CC2)c2nc(-c3ccc(F)cc3)ccc2n1` [Example 490, 2-amino-4-[4-(4-chlorophenylcarbamoyl-acetyl)piperazin-1-yl]-6-(4-fluorophenyl)-pyrido[3,2-d]pyrimidine] the IC50 [1] was 0.34 µM.
`COc1cc(-c2ccc3nc(N)nc(N4CCN(C(=O)COc5ccc(Cl)cc5)CC4)c3n2)ccc1O` [Example 496, 2-amino-4-[N-(4-chlorophenoxyacetyl)-piperazin-1-yl]-6-(3-methoxy-4-hydroxyphenyl)-pyrido(3,2-d)pyrimidine] showed an IC50 [1] of 0.071 µM.
Work on `CCN(CC)C(=O)N1CCN(c2nc(N)nc3ccc(-c4ccc(F)cc4)nc23)CC1` [Example 463, 2-amino-4-[4-(diethylcarbamoyl)piperazin-1-yl]-6-(4-fluorophenyl)-pyrido[3,2-d]pyrimidine] yielded an IC50 [1] of 0.6 µM.
In the case of `Nc1nc(N2CCN(C(=O)COc3ccc(Cl)cc3)CC2)c2nc(-c3ccc(OCc4ccccc4)c(F)c3)ccc2n1` [Example 513, 2-amino-4-[N-(4-chlorophenoxyacetyl)-piperazin-1-yl]-6-(3-fluoro-4-benzyloxy-phenyl)-pyrido(3,2-d)pyrimidine], the IC50 [1] is reported as > 10 µM.
`CC(C)(C)OC(=O)N1CCCC(Nc2nc(N)nc3ccc(-c4ccc(F)cc4)nc23)C1` (stereo not drawn) [Example 457, 2-amino-4-[1-(tert-butoxycarbonyl)piperid-3-ylamino]-6-(4-fluorophenyl)-pyrido[3,2-d]pyrimidine] gave an IC50 [1] of 6.6 µM.
With `COc1ccc(-c2ccc3nc(N)nc(N4CC[C@@H](NC(=O)Nc5cccc(C)c5)C4)c3n2)cc1OC` [Example 260] the IC50 [3] was 2.1 µM.
`Cc1csc(-c2ccc3nc(N)nc(N4CCN(C(=O)COc5ccc(Cl)cc5)CC4)c3n2)c1` [Example 511, 2-amino-4-[N-(4-chlorophenoxyacetyl)-piperazin-1-yl]-6-(4-methyl-2-thienyl)-pyrido(3,2-d)pyrimidine] was tested, and the IC50 [1] was 0.054 µM.
With `Nc1nc(N2C[C@@H]3C[C@H]2CN3C(=O)COc2ccc(Cl)cc2)c2nc(-c3ccc(F)cc3)ccc2n1` [Example 484, (S,S)-1-{5-[2-amino-6-(4-fluorophenyl)-pyrido[3,2-d]pyrimidin-4-yl]-2,5-diaza-bicyclo[2.2.1]hept-2-yl}-2-(4-chlorophenoxy)-ethanone] the IC50 [1] was 2.6 µM.
`CC(=O)c1ccc(-c2ccc3nc(N)nc(N4CCN(C(=O)COc5ccc(Cl)cc5)CC4)c3n2)cc1` [Example 446, 2-amino-4-[4-(4-chlorophenoxyacetyl)piperazin-1-yl]-6-(4-acetylphenyl)pyrido-[3,2-d]pyrimidine] showed an IC50 [1] of 0.011 µM.
